Experimental data reported in article PMC7898037, “Improving mitochondria and ER stability helps eliminate upper motor neuron degeneration that occurs due to mSOD1 toxicity and TDP‐43 pathology” (Clinical and Translational Medicine, 2021).

Key:
[1] = system: misfolded SOD1 in UMNs of hSOD1^G93A‐UeGFP mice; assay: Quantification of misfolded SOD1 (B8H10) in UMNs; assay type: in vivo; conditions: for misfolded SOD1 level in UMNs (average integrated density): hSOD1^G93A‐UeGFP mice
Description: (§1) hSOD1^G93A‐UeGFP, prpTDP‐43^A315T‐UeGFP and WT‐UeGFP mice were weighed and the required NU‐9 dose per weight was calculated (20 or 100 mg/kg), which was administered once daily by oral gavage, starting at postnatal day (P)60 and continuing until P120. Animals from the untreated group received the vehicle (NMP and olive oil) only. For oral administration purposes, 20 ga × 38 mm plastic feeding tubes were used (Instech Laboratories, Inc). The gavage tip was inserted into the mouth directly over the tongue and into the pharynx. While observing the swallowing reflex, the tip was safely and smoothly slid into the esophagus. Once the administration was completed, the gavage tip was pulled straight out.
The antibodies used are as follows: anti‐GFP (1:1000, Invitrogen; or 1:1000, Abcam) and anti‐misfolded SOD1 (B8H10, 1:250, Médimabs). Briefly, sections were treated with blocking solution (PBS, 0.05% BSA, 2% FBS, 1% Triton X‐100, and 0.1% saponin) for 30 min at room temperature and incubated with primary antibody diluted in blocking solution overnight at 4°C. Appropriate secondary fluorescent antibodies (1:500, AlexaFluor‐conjugated, Invitrogen) were added to the blocking solution at room temperature for 2 h in the dark.
50‐µm thick sections of primary motor cortex were captured using the 20× objective on an inverted epifluorescent Eclipse TE2000‐E microscope using the same settings and exposure time for all of the samples. eGFP positive (eGFP^+) UMNs in focal plane with sharp boundaries and a visible nucleus were traced using ImageJ (NIH). ROI were transferred to the misfolded SOD1 channel, and the integrated density was measured to determine the levels of misfolded SOD1 in GFP^+ UMNs only. Fifty to 90 UMNs were analyzed per mouse, and the average integrated density was reported per experimental group. For visualization purposes of misfolded SOD1 fluorescence intensity, nd2 files were opened in ImageJ and spectrum look‐up table (LUT) was applied to the appropriate channel.

[2] = system: UMNs in the motor cortex of WT‐UeGFP mice; assay: UMN quantification in motor cortex, WT‐UeGFP mice; assay type: in vivo
Description: as §1
Since UMNs are genetically labeled with eGFP expression in the motor cortex of WT‐UeGFP, hSOD1^G93A‐UeGFP, and prpTDP‐43^A315T‐UeGFP mice, UMNs were identified based on the GFP expression. Quantitative analyses were performed on three matched rostrocaudal sections spanning the motor cortex. Three images per subject were taken to capture a 4× objective filed that encompass layer 5 of the motor cortex. An inverted epifluorescent Eclipse TE2000‐E microscope (Nikon) with the same exposure time and intensity was used. UMNs were counted only if their soma and apical dendrite were both visualized in the same 50‐µm thick section. Images were analyzed in ImageJ (NIH) using the Find maxima processing command to determine the local maxima within a predetermined region of interest that circumscribes the layer 5 of the motor cortex. A universal noise tolerance, which ignores the local maxima corresponding to background and autofluorescence, was applied to all images.

hERG channel = conditions: cited from earlier work
[3] = system: UMNs of prpTDP‐43^A315T‐UeGFP mice; assay: EM quantification of mitochondria and ER in UMNs, prpTDP‐43^A315T‐UeGFP mice; assay type: in vivo
Description: as §1
Mice were perfused with EM grade 4% PFA. One hemisphere of the brain was sectioned at 50 µm thickness coronally on a vibratome (Leica VT1000S, Leica Inc., Nussloch, Germany). The sections were postfixed in 2% PFA and 0.5% glutaraldehyde for 1 h, they were cryoprotected with glycerol–dimethylsulfoxide (DMSO) mixture followed by freeze–thaw at least four times, and treated with 1% sodium borohydride. They were then treated with 0.3% H2O2–10% methanol in TBS (100 mM Tris–HCl and 150 mM NaCl, pH 7.6) and 5% normal goat serum–1% bovine serum albumin in TBS to block nonspecific binding of primary antibody. This mixture was incubated overnight with rat anti‐Ctip2 antibody (1:500, Thermo Fisher Scientific, Rockford, IL, USA). Biotinylated goat anti‐rat IgG (1:500, Vector Laboratories, Burlingame, CA, USA) was used as the secondary antibody, and diaminobenzidine (DAB) was applied as the chromogen (ABC Elite kit, Vector Laboratories, Burlingame, CA, USA). Sections were then postfixed in buffered 2% osmium tetroxide (OsO4) (Electron Microscopy Sciences, Hatfield, PA, USA), rinsed with distilled water, and stained in 1% uranyl acetate (Electron Microscopy Sciences, Hatfield, PA, USA), again rinsed with distilled water, dehydrated in ascending grades of ethanol with transition fluid propylene oxide (Electron Microscopy Sciences, Hatfield, PA, USA), embedded in the resin mixture with Embed 812 (Electron Microscopy Sciences, Hatfield, PA, USA), and cured in a 60°C oven for 3 days. The sections in which primary motor cortex was present and visible under bright‐field illumination on a dissecting scope were selected. Approximately, 5‐mm‐wide × 7‐mm‐long pieces of the motor cortex from these sections were dissected under the microscope mounted on a resin block and were sectioned on a Leica Ultracut UC6 ultramicrotome (Leica Inc., Nussloch, Germany). The motor cortex was further trimmed, and only layer 5 was kept intact for preparing ultrathin sections. UMNs were identified based on the presence of Ctip2 immunohistochemistry (DAB) in their nuclei (Figure S1). Seventy‐nanometer‐thin sections were collected on 200‐mesh copper–palladium grids. Grids were counterstained with 8% radioactive depleted uranyl acetate and 0.2% lead citrate. Grids were examined on FEI Tecnai Spirit G2 TEM (FEI company, Hillsboro, OR, USA), and digital images were captured on a FEI Eagle camera.
EM images of Betz cells of normal control and patients, Ctip2‐positive (Ctip2^+) UMN of WT, and hSOD1^G93A‐UeGFP and prpTDP‐43^A315T‐UeGFP mice (Figure S1) were acquired from 70‐nm ultrathin sections of the motor cortex, and EM images were taken on FEI Tecnai Spirit G2 TEM using FEI Eagle camera. Mitochondria were quantified, as described previously. ^34 Mitochondria with intact outer and inner membrane and with intact cristae were considered healthy. Mitochondria with morphological defects, such as broken outer and/or inner membrane and cristae, were counted individually and were reported as percentage of defective mitochondria. ER that are disintegrated and that display profound expansion were considered unhealthy. Length of ER cisternae was measured using line tool of ImageJ software (NIH) upon calibration for pixels/micrometer using set scale function. […]

mice = conditions: cited from earlier work
[4] = WT-UeGFP mice, NU-9 100 mg/kg/day
[5] = WT-UeGFP vehicle minus NU-9 100 mg/kg/day, Tukey's multiple comparisons test
[6] = prpTDP-43A315T-UeGFP mice, NU-9 100 mg/kg/day
[7] = prpTDP-43A315T-UeGFP untreated minus NU-9 100 mg/kg/day, Tukey's multiple comparisons test
[8] = prpTDP‐43^A315T‐UeGFP mice, 100 mg/kg/day oral gavage P60–P120

Structure (SMILES): C[C@H](Oc1cc(C(F)(F)F)cc(C(F)(F)F)c1)C1CC(=O)CC(=O)C1 [NU‐9]
- Fig. 3E group mean (integrated density of misfolded SOD1 fluorescence in UMNs) ([1]; hSOD1G93A-UeGFP (NU-9 20 mg/kg/day)): 132928
- Fig. 3E group mean (integrated density of misfolded SOD1 fluorescence in UMNs) ([1]; hSOD1G93A-UeGFP (NU-9 100 mg/kg/day)): 120052
- misfolded SOD1 level in UMNs (average integrated density) ([1]; 20 mg/kg/day oral gavage P60–P120): 1.33 × 10^5 ± 0.11 × 10^5 au
- misfolded SOD1 level in UMNs (average integrated density) ([1]; 100 mg/kg/day oral gavage P60–P120): 1.2 × 10^5 ± 0.07 × 10^5 au
- Mean, Fig. 5E (UMN quantification in motor cortex) [2, 4]: 65.5
- Mean, Fig. 7H (UMN quantification in motor cortex) [2, 4]: 65.5
- Mean Diff., Fig. 5E, G Vehicle vs. G NU-9 (100) [2, 5]: -6.183
- Mean Diff., Fig. 7H, G Vehicle vs. G NU-9 (100) [2, 5]: -6.183
- average number of UMNs per section in the motor cortex ([2]; WT‐UeGFP mice, 100 mg/kg/day oral gavage P60–P120): 66 ± 1 UMNs
- inhibition of the hERG channel (hERG channel): little inhibition
- hERG antagonism (hERG channel; up to 30 µM): No inhibition up to 30 µM
- Mean Diff., Fig. 6J, TDP-43 vs. TDP-43 -NU9 ([3]; prpTDP43A315T-UeGFP untreated minus NU-9 100 mg/kg/day, Tukey's multiple comparisons test): -0.8333
- Fig. 6G group mean (total number of mitochondria/UMN) ([3]; prpTDP-43A315T-UeGFP (NU-9 100 mg/kg/day)): 31.85
- Mean, Fig. 6H (EM quantification in UMNs) [3, 6]: 86.77
- Mean, Fig. 6I (EM quantification in UMNs) [3, 6]: 31.16
- Mean, Fig. 6J (EM quantification in UMNs) [3, 6]: 1.37
- Mean Diff., Fig. 6H, TDP-43 vs. TDP-43 -NU9 [3, 7]: -64.89
- Mean Diff., Fig. 6I, TDP-43 vs. TDP-43 -NU9 [3, 7]: -18.7
- average number of intact ER cisternae in UMNs [3, 8]: 36 ± 2 ER cisternae/UMN/section
- average percentage of healthy mitochondria [3, 8]: 87% ± 1%
- total mitochondria per UMN per section [3, 8]: 32 ± 3 mitochondria/UMN/section
- MTD (mice; ip): 1280 mg/kg
- NOAEL (mice; po, 7‐day repeat toxicology study): 100 mg/kg
